# According to patent publication US11865129B2, “Application of anemoside B4 in preparation of a drug for treatment or prevention of psoriasis” (GUANGXI XINHAI PHARMACEUTICAL TECHNOLOGY CO., LTD., priority 2021, dated 2024):
# Legend:
# [1] = tested on: 5% imiquimod-induced psoriatic lesions; experiment: Psoriatic lesions and PASI, 5% imiquimod-induced psoriasis model in mice (first animal group); format: in vivo, BALB/c male mice; conditions: for skin lesions of the mice: 12 days
# Experimental: (§1) A shaving area on the back of the mice in each group is 2.5 cm×3 cm, and the vellus is removed with mild depilatory cream. The mice of each group except the blank control group are modeled by administrating 62.5 mg 5% imiquimod cream on the shaving area until the skin is thickened and has erythema and silver scales for modeling completely. During the model establishment, 5% imiquimod cream is administrated once a day, and continuously administrated for 14 days. On the third day, the model establishment is continued and drugs are administered at the same time, wherein the mice in the AC intragastric administration group (8 mg/kg), the anemoside B4 intragastric (i.g.) administration group (5 mg/kg), the anemoside B4 intragastric administration group (10 mg/kg), and the anemoside B4 intragastric administration group (20 mg/kg) are administrated once a day, and continuously administrated for 12 days. […] The mice in the blank control group and the model control group are applied 62.5 mg Vaseline to the skin lesions once a day, and continuously applied for 12 days. The weight of the mice is recorded for counting the weight change of the mice.
# [2] = tested on: T lymphocyte subsets of CD4+, CD3+, CD4+/CD8+; experiment: T lymphocyte subsets by flow cytometry, psoriasis model rats; format: in vivo, SD male rats; conditions: 7 days, vs model control group
# Experimental: 60 SPF-grade SD male rats in the second animal group are divided into 6 groups: a blank control group, a model control group, an anemoside B4 intragastric administration group (5 mg/kg), an anemoside B4 intragastric administration group (10 mg/kg), an anemoside B4 intragastric administration group (20 mg/kg), and an acitretin intragastric administration group (5 mg/kg), and are respectively expressed into the blank control group, the model group, anemoside B4 5 mg/kg, anemoside B4 10 mg/kg, anemoside B4 20 mg/kg, and acitretin 5 mg/kg in FIGS. 3, 4 and 5 for convenience. A shaving area on the back of the rats in each group is 2.5 cm×3 cm, and the vellus is removed with mild depilatory cream. The rats of each group except the blank control group are modeled by administrating 62.5 mg 5% imiquimod cream on the shaving area until the skin is thickened and has erythema and silver scales for modeling completely.
# 5% imiquimod cream is administrated once a day, and continuously administrated for 8 days for model establishment. On the second day, the rats in each group are continuously intragastric (i.g.) administered drugs for 7 days.
# After administration, blood is taken from abdominal aorta of the rats in each group of the second animal group, added erythrocyte lysis buffer, centrifuged to collect T lymphocytes, incubated CD4, CD3 and CD8 antibodies in 4° C., washed with a buffer, centrifuged to collect cells, and is subjected to flow cytometry to measure the ratio of the T lymphocyte subsets.
# [3] = tested on: white blood cell (WBC), Neutrophilicgranulocyte (Neu) and Lymphocyte (Lym); experiment: Blood analysis (blood routine tester), psoriasis model mice; format: in vivo, BALB/c male mice; conditions: 12 days, compared with model control group
# Experimental: as §1, with “mice. Eyeball blood of the mice in each group of the first animal group is drawn on the last day, and measured the level of white blood cell (WBC), […] (Neu) and Lymphocyte (Lym) in blood with the blood routine tester.” for “mice.”
# IL-17 = IL-17 level in skin tissue, psoriasis model mice; format: in vivo, BALB/c male mice; conditions: 12 days, compared with model control group
# Experimental: as §1, with “mice. 100 mg skin tissue of the mice in each group of the first animal group are precisely weighed, added 0.9 mL ice normal saline, homogenized with the tissue grinder, and centrifuged at 4° C. and 3000 rpm for 10 min. The supernatant is collected, and IL-12, IL-17, IL-6 and IL-1β level in the skin tissue are measured by kits according to the procedures of specification.” for “mice.”
# IL-12 = IL-12 level in skin tissue, psoriasis model mice; format: in vivo, BALB/c male mice; conditions: 12 days, compared with model control group
# Experimental: as §1, with “mice. 100 mg skin tissue of the mice in each group of the first animal group are precisely weighed, added 0.9 mL ice normal saline, homogenized with the tissue grinder, and centrifuged at 4° C. and 3000 rpm for 10 min. The supernatant is collected, and IL-12, IL-17, IL-6 and IL-1β level in the skin tissue are measured by kits according to the procedures of specification.” for “mice.”
# [4] = intragastric 5 mg/kg once a day
# [5] = intragastric 10 mg/kg once a day
# [6] = intragastric 20 mg/kg once a day
structure (smiles),measurement,setting,value
C=C(C)[C@@H]1CC[C@]2(C(=O)O[C@@H]3O[C@H](CO[C@@H]4O[C@H](CO)[C@@H](O[C@@H]5O[C@@H](C)[C@H](O)[C@@H](O)[C@H]5O)[C@H](O)[C@H]4O)[C@@H](O)[C@H](O)[C@H]3O)CC[C@]3(C)[C@H](CC[C@@H]4[C@@]5(C)CC[C@H](O[C@@H]6OC[C@H](O)[C@H](O)[C@H]6O[C@@H]6O[C@@H](C)[C@H](O)[C@@H](O)[C@H]6O)[C@@](C)(CO)[C@@H]5CC[C@]43C)[C@H]12 [anemoside B4],"improvement of the skin lesions, compared with the acitretin capsules (AC) intragastric administration group","[1]; anemoside B4 groups, doses not specified",better
same,skin lesions of the mice,[1]; [4],significantly improved
same,skin lesions of the mice,[1]; [5],significantly improved
same,skin lesions of the mice,[1]; [6],significantly improved
same,ratio of CD3+ in serum,[2]; intragastric 5 mg/kg,significantly increased
same,ratio of CD4+ in serum,[2]; intragastric 5 mg/kg,significantly increased
same,ratio of CD4+/CD8+ in serum,[2]; intragastric 5 mg/kg,significantly increased
same,ratio of CD3+ in serum,[2]; intragastric 10 mg/kg,significantly increased
same,ratio of CD4+ in serum,[2]; intragastric 10 mg/kg,significantly increased
same,ratio of CD4+/CD8+ in serum,[2]; intragastric 10 mg/kg,significantly increased
same,ratio of CD3+ in serum,[2]; intragastric 20 mg/kg,significantly increased
same,ratio of CD4+ in serum,[2]; intragastric 20 mg/kg,significantly increased
same,ratio of CD4+/CD8+ in serum,[2]; intragastric 20 mg/kg,significantly increased
same,Lym in blood,[3]; [4],significantly decreased
same,Neu in blood,[3]; [4],significantly decreased
same,WBC in blood,[3]; [4],significantly decreased
same,Lym in blood,[3]; [5],significantly decreased
same,Neu in blood,[3]; [5],significantly decreased
same,WBC in blood,[3]; [5],significantly decreased
same,Lym in blood,[3]; [6],significantly decreased
same,Neu in blood,[3]; [6],significantly decreased
same,WBC in blood,[3]; [6],significantly decreased
same,level of IL-17 in the skin tissue,IL-17; [4],significantly reduced
same,level of IL-17 in the skin tissue,IL-17; [5],significantly reduced
same,level of IL-17 in the skin tissue,IL-17; [6],significantly reduced
same,level of IL-12 in the skin tissue,IL-12; [4],significantly reduced
same,level of IL-12 in the skin tissue,IL-12; [5],significantly reduced
same,level of IL-12 in the skin tissue,IL-12; [6],significantly reduced
